Measured values from ChEMBL document CHEMBL1159371, “Trisphaerolide A, a novel polyketide from the Dominican sponge Erylus trisphaerus” (J Nat Prod, 2003).
≈ marks a conversion by molar mass, not a printed value. Calls of active or inactive are those of the source. The calls are words filed in the database; no cut-off is given here.

Columns and labels:
MCF7 [1] = assay: Cytotoxicity against human MCF7 cells; type: functional, cell-based
MCF7 [2] = assay: Cell cycle arrest in human MCF7 cells by G2 checkpoint inhibition assay; type: functional, cell-based

Compound: C[C@]1(O)CC(=O)O[C@](C)(CCCCCCCCC/C=C/Cc2ccccc2)C1 [TRISPHAEROLIDE A]
- IC50 (MCF7 [1]): 30 mg/L (≈ 77.6 µM)
- Activity (MCF7 [2]): inactive
